Source: PubChem BioAssay (NCI)
Values joined by “and” are separate entries in the source; they are usually repeats but may differ in a detail not shown here. Identical values can stand only once.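 In this assay, cells in 96-well plates receive the compound at five concentrations for 48 hours. Endpoints are linearly interpolated between the surrounding concentrations. GI50: concentration for 50% inhibition of growth. TGI is the concentration that stops growth completely.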

What was measured:
Experiment in all cases: growth of human tumour cells (NCI), 48 h
KM12 colon = tested on: KM12 colon
MDA-MB-231 breast = tested on: MDA-MB-231 breast
IGROV1 ovarian = tested on: IGROV1 ovarian
MCF7 breast = tested on: MCF7 breast
SK-MEL-2 melanoma = tested on: SK-MEL-2 melanoma
SK-OV-3 ovarian = tested on: SK-OV-3 ovarian
SK-MEL-5 melanoma = tested on: SK-MEL-5 melanoma
OVCAR-3 ovarian = tested on: OVCAR-3 ovarian
PC-3 prostate = tested on: PC-3 prostate
SF-539 CNS = tested on: SF-539 CNS

SMILES | GI50 (KM12 colon) | TGI (KM12 colon) [µM] | GI50 (MDA-MB-231 breast) [µM] | TGI (MDA-MB-231 breast) [µM] | GI50 (IGROV1 ovarian) | TGI (IGROV1 ovarian) [µM] | GI50 (MCF7 breast) [µM] | TGI (MCF7 breast) [µM] | GI50 (SK-MEL-2 melanoma) | TGI (SK-MEL-2 melanoma) | GI50 (SK-OV-3 ovarian) | TGI (SK-OV-3 ovarian) [µM] | GI50 (SK-MEL-5 melanoma) [µM] | TGI (SK-MEL-5 melanoma) | GI50 (OVCAR-3 ovarian) | TGI (OVCAR-3 ovarian) | GI50 (PC-3 prostate) [µM] | TGI (PC-3 prostate) [µM] | GI50 (SF-539 CNS) [µM] | TGI (SF-539 CNS) [µM]
O=C(c1ccc(O)cc1)c1ccc(C(=O)c2ccc(O)cc2)cc1 | > 100 µM | > 100 | 46.9 | > 100 | 6.32 µM | > 100 | 75.1 | > 100 | > 100 µM | > 100 µM | 23.3 µM | > 100 | > 100 | > 100 µM | > 100 µM | > 100 µM | > 100 | > 100 | 80 | > 100
COc1cc2c(cc1OCCCCC(=O)Nc1ccc(-c3nc4ccccc4s3)cc1)N=C[C@@H]1CCCN1C2=O | 2.94 µM | 12.4 | 2.08 | 10.2 | 0.695 µM | 2.27 | 0.732 | 3.43 | 1.95 µM | 4.22 µM | 4.48 µM | 14.5 | 1.76 | 3.17 µM | 1.86 µM | 8.01 µM | 2.04 | 5.93 | 1.59 | 3.38
CC(=O)OC1CCC2(C)C(CCC3C2CCC2(C)C(C4=CC(=O)OC4)CCC32)C1 (stereo not drawn) | 22.2 µM | > 100 | 0.725 | 2.81 | 16.9 µM | 53.2 | 9.07 | 95.7 | 7.72 µM | 34.4 µM | 19.9 µM | 49 | 2.37 | 6.58 µM | 20.6 µM | 86 µM | 5.07 | 25.7 | 2.68 | 9.15
Cc1sc2nc(-c3ccccn3)c(/C=N/N=C(N)N)n2c1C | 7.85 µM | 15.6 | 3.3 | 6.94 | 25.6 µM | > 58.3 | 6.54 | 34 | 7.99 µM | 21.4 µM | 9.14 µM | 20.1 | 3.58 | 8.13 µM | 8.03 µM | 15.6 µM | 10.2 | 28.6 | 28.6 | 50.8
CN(C)CCCNC(=O)c1cc2c3ccccc3[nH]c2c2ncccc12 | 19.8 µM | 67.3 | 14.4 | 74.9 | 10.9 µM | 70.9 | 14.7 | 66.8 | 13.8 µM | 31.7 µM | 20 µM | > 100 | 13.5 | 26.6 µM | 16.3 µM | 54.9 µM | 24.9 | > 100 | 10.8 | 23.4
NC1=CC(=O)C(=O)c2cccnc21 | 12 µM | 25.8 | 1.93 | 18.8 | 7.91 µM | 23.1 | 3.74 | 16.8 | 3.85 µM | 15.6 µM | 18.8 µM | 41.2 | 1.51 | 2.84 µM | 12.9 µM | 29.4 µM | 11.2 | 49.2 | 7.59 | 20.3
Cn1cc(-c2csc(-c3cn(CCN4CCOCC4)c4ccc(F)cc34)n2)c2cccnc21 | 2.85 µM | 11.1 | 2.51 | 8.48 | 2.91 µM | 14.1 | 1.94 | 6.55 | 2.53 µM | 7.28 µM | 5.41 µM | 51.6 | 1.85 | 3.56 µM | 2.71 µM | 9.27 µM | 2.14 | 6.64 | 3.16 | 16.2
Cc1cc[c-]cc1.Fc1c[c-]c(-c2ccccn2)c(F)c1.N#CCC[PH+](CCC#N)c1ccccc1.[Pt+2] | 3.39 µM | 13.2 | 2.74 | 7.57 | 2.89 µM | 21.9 | 2.68 | 17.6 | 2.41 µM | 6.57 µM | 8.37 µM | > 100 | 2.24 | 5.36 µM | 3.26 µM | 13.1 µM | 3.01 | 20.7 | 2.92 | 10.3
COc1ccc(-c2nnc3n(C)c(=O)c4ccccc4n23)cc1O | 0.152 µM | > 100 | 2.29 | 31.7 | 2.69 µM | > 86.3 | 0.13 | > 100 | 0.14 µM | 37.5 µM | 1.12 µM | 32.9 | 0.15 | > 100 µM | 0.162 µM | 12.7 µM | 0.611 | > 100 | 0.596 | 6.68
CC[C@](O)(C(=O)O)c1cc2n(c(=O)c1CO)Cc1cc3ccccc3nc1-2 | 0.132 µM and 0.228 µM and 0.54 µM |  | 0.969 | 6.84 | 0.0299 µM and 0.197 µM |  |  | 3.43 | 0.314 µM and 0.39 µM | 1.7 µM and 1.46 µM and 0.699 µM | 0.0283 µM and 0.0176 µM |  |  | 0.0383 µM and 0.156 µM and 0.0896 µM | 0.0775 µM and 0.268 µM and 0.0965 µM | 0.323 µM and 1.18 µM and 0.866 µM | 0.113 | 5.17 | < 0.0025 | 
O=C1C[C@@H](c2ccccc2)NCCCCN(O)CCCN1 |  | > 100 |  | > 100 |  | > 100 |  | > 100 |  | > 100 µM |  | > 100 |  | > 100 µM |  | > 100 µM |  | > 100 |  | > 100
C[C@@H]1CN(Cc2ccc(/C=C/c3n[nH]c4ccc5nc(-c6cn[nH]c6C(F)(F)F)c6c(c5c34)CCCC6)cc2)C[C@H](C)O1 | 2.03 µM | 14.3 | 3.24 | 15.5 | 1.33 µM | 10.7 | 1.53 | 14.9 | 13.5 µM | 33.8 µM | 3.64 µM | 17.3 | 12.2 | 24.7 µM | 2.96 µM | 14.6 µM | 3.93 | 18.8 | 2.97 | 14.7
CCOC(=O)Nc1nc2c(F)c(F)c(F)cc2s1 | > 100 µM | > 100 | 36.2 | > 100 | > 100 µM | > 100 | > 100 | > 100 | 53.1 µM | > 100 µM | 45.2 µM | > 100 | > 100 | > 100 µM | 75.1 µM | > 100 µM | > 100 | > 100 | 28.7 | 98.2
Nc1c(C(=O)Nc2cccc3ccccc23)sc2nc3c(cc12)CCCC3 | 0.675 µM | > 100 | 5.23 | > 100 | 2.34 µM | > 100 | 0.0577 | > 100 | 1.04 µM | > 100 µM | 1.54 µM | > 100 | 0.459 | 10.7 µM | 0.577 µM | > 100 µM | 1.8 | > 100 | 1.45 | > 100
Cc1cc2nc3ccc(N=Nc4ccc(N(C)C)cc4)cc3n(-c3ccccc3)c-2cc1=N | 0.0174 µM | 0.116 | 0.074 | 0.466 | 0.0221 µM and 0.0328 µM |  | 0.00199 | 0.0143 | 0.058 µM | 0.317 µM | 0.0305 µM | 0.187 | 0.0235 | 0.143 µM | 0.0121 µM | 0.039 µM | 0.0143 | 0.183 | 0.0226 | 0.153
O=C1Nc2ccccc2C12CC(c1ccccc1)=NN2 (stereo not drawn) | 4.76 µM | > 100 | 8.61 | 79.7 | 5.75 µM | 75.9 | 3.72 | > 100 | 5.46 µM | 46.5 µM | 9.12 µM | > 100 | 4.81 | > 100 µM | 5.1 µM | 80.7 µM | 3.89 | > 100 | 3.4 | 15
CC(C)(C)c1ccc(C(=O)N/N=C/c2ccc(O)cc2O)cc1 | 0.418 µM | 2.48 | 0.5 | 5.83 | 0.411 µM | 12.4 | 0.322 | 12.7 | 1.89 µM | 16 µM | 0.589 µM | 14.7 | 0.913 | 3.4 µM | 0.28 µM | 2.06 µM | 0.706 | 21.8 | 0.452 | 2.98
Cc1ccc(C(=O)Nc2ccc(CN3CCN(C)CC3)c(C(F)(F)F)c2)cc1C#Cc1cncc2ncccc12 | 0.338 µM | 4.49 | 0.177 | 1.1 | 0.0879 µM | 0.755 | 1.46 | 3.44 | 0.191 µM | 0.599 µM | 0.553 µM | 6.63 | 2.63 | 8.14 µM | 0.558 µM | 14.7 µM | 3.15 | 21.4 | 0.42 | 1.55
COC(=O)[C@]12CC[C@@H](C)[C@H](C)[C@@H]1C1=CC[C@@H]3[C@@]4(C)C(c5ncon5)=C[C@@](C)(CO)C4=CC[C@@]3(C)[C@]1(C)CC2 | 1.98 µM | 3.99 | 2.2 | 5.08 | 2.47 µM | 7.19 | 1.42 | 2.9 | 2.05 µM | 4.22 µM | 4.49 µM | 15.5 | 1.88 | 3.41 µM | 1.79 µM | 3.25 µM | 2.1 | 4.7 | 1.97 | 3.89
Cc1cc(N(CCCNc2ccnc3cc(Cl)ccc23)Cc2cccs2)nc(Cl)n1 | 4.16 µM | 17 | 3.36 | 17.3 | 2.9 µM | 18.9 | 3.06 | 17.1 | 12.3 µM | 29.6 µM | 7.05 µM | 22.1 | 1.45 | 3.15 µM | 6.43 µM | 21.4 µM | 3.32 | 22.9 | 7.02 | 23.1
O=C(Cc1ccc(/C=C/C(=O)c2ncc[nH]2)cc1)Nc1ccc(Br)cc1 | 0.864 µM | 3.13 | 3.97 | 13.4 | 2.37 µM | 7.22 | 0.569 | > 16.7 | > 16.7 µM | > 16.7 µM | 8.2 µM | > 16.7 | 5.77 | > 16.7 µM | 0.85 µM | 3.88 µM | 2.51 | 10.2 | 1.47 | 3.56
CC(C)[C@@H](C(=O)O[C@@H]1/C=C/C(=O)O[C@@H](C)CCC/C=C/[C@@H]2C[C@H](O)C[C@H]21)[N+](C)(C)C | > 100 µM | > 100 | > 100 | > 100 | > 100 µM | > 100 | > 100 | > 100 | > 100 µM | > 100 µM | > 100 µM | > 100 | > 100 | > 100 µM | > 100 µM | > 100 µM | > 100 | > 100 | > 100 | > 100
N#Cc1cc2cc3c4c(c2oc1=O)CCCN4CCC3 |  | > 100 |  | > 100 |  | > 100 |  | > 100 |  | > 100 µM |  | > 100 |  | > 100 µM |  | > 100 µM |  | > 100 |  | > 100
Cn1c2ccccc2c2cc(-c3ccccc3)c3c(c21)C(=O)C=CC3=O |  | 42.2 |  | 47.4 |  | 64.9 |  | 24.7 |  | 49.9 µM |  | > 100 |  | > 62.7 µM |  | 31.7 µM |  | 34.8 |  | 58.3
CC1OC(OC2C(OC3C[C@@]4(C)C(C[C@H](O)[C@H]5[C@H](C6(C)CCC(C(C)(C)O)O6)CCC54C)[C@]4(C)CC[C@@H](O)C(C)(C)C34)OC(CO)C(O)C2O)C(O)C(O)C1O (stereo partly drawn) (tested in a mixture with another compound) |  | > 100 |  | > 100 |  | > 100 |  | > 100 |  | > 100 µM |  | > 100 |  | > 100 µM |  | > 100 µM |  | > 100 |  | > 100
